Test results: patent EP2459551B1, “DIHYDROBENZOINDAZOLES” (Merck Sharp & Dohme B.V., priority 2009, dated 2011)

The compounds below were run against T1, human FSH receptor (Homo sapiens, UniProt P23945).
T1 sequence (P23945 18-695): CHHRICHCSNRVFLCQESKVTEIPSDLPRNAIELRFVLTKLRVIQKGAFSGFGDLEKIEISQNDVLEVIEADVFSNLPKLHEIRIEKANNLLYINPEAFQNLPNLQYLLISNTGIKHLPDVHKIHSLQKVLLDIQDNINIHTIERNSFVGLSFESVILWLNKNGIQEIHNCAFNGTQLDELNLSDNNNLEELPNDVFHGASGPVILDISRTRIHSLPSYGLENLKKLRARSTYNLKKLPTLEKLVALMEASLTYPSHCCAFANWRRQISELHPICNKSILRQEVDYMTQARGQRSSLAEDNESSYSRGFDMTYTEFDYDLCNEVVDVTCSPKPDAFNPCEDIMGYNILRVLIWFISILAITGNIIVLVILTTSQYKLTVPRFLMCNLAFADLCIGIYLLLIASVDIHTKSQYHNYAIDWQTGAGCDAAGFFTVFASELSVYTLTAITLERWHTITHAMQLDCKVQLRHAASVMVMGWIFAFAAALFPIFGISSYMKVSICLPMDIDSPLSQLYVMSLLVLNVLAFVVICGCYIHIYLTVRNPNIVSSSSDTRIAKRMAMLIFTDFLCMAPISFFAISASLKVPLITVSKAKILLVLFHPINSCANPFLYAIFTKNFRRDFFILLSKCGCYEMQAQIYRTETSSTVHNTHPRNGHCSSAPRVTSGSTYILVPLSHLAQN
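Further: CHO cells stably expressing human FSH receptor with CRE-driven firefly luciferase, luminescence read as counts per second after 4 h compound exposure in 1% DMSO.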
Method: Agonistic activity of compounds at the human FSH receptor expressed in CHO cells
Agonistic activity of the compounds at the human FSH receptor was determined in Chinese Hamster Ovary (CHO) cells stably transfected with the human FSH receptor and cotransfected with a cAMP responsive element (CRE)/promotor directing the expression of a firefly luciferase reporter gene. […] Cells (7,500 cells/well of a 384 well plate) were incubated in Dulbecco' minimal essential F12 modified medium (Invitrogen), supplemented with 1 µg/ml bovine insulin, 5 µg/ml human apotransferrin, 80 U/ml penicillin G and 80 µg/ml streptomycin with the test compounds (concentration between 0.0316 nM and 10.0 µM) in duplicate in a humidified atmosphere (95%) at 5-7% CO2 and 37°C. The final concentration of DMSO was 1%. After 4 hours of incubation, plates were allowed to adjust to room temperature for 1 hour. Then, Luclite (PerkinElmer) solution was added to the wells and cells were allowed to lyse for at least 1 hour at room temperature. Subsequently, luciferase activity was measured in a luminescence counter. The signal is expressed as counts per second (cps). The EC50 (concentration of the test compound that elicits half-maximal (50 %) luciferase stimulation compared to the compound's maximally attainable effect) and efficacy values (maximal effect of the test compound as percentage of the maximal effect of recombinant human FSH) of the compounds were determined using the software program MathIQ (version 2.0, ID Business Solutions Limited).

| EC50 | Compound |
| --- | --- |
| 1000 to 10000 nM | C=CCc1cccc(-n2nc(C(=O)N(C)C(C)(C)C)c3c2-c2cc(OC(C)C)c(OC)cc2CC3)c1 [Example 7ca, 1-(3-allylphenyl)-N-tert-butyl-8-isopropoxy-7-methoxy-N-methyl-4,5-dihydro-1H-benzo[g]indazole-3-carboxamide] |
| 1000 to 10000 nM | C=C(C)c1cccc(-n2nc(C(=O)N(C)C(C)(C)C)c3c2-c2cc(OC(C)C)c(OC)cc2CC3)c1 [Example 7cb, N-tert-butyl-8-isopropoxy-7-methoxy-N-methyl-1-(3-(prop-1-en-2-yl)phenyl)-4,5-dihydro-1H-benzo[g]indazole-3-carboxamide] |
| 100 to 1000 nM | C=Cc1cccc(-n2nc(C(=O)N(C)C(C)(C)C)c3c2-c2cc(OC(C)C)c(OC)cc2CC3)c1 [Example 7cc, N-tert-butyl-8-isopropoxy-7-methoxy-N-methyl-1-(3-vinylphenyl)-4,5-dihydro-1H-benzo[g]indazole-3-carboxamide] |
| 100 to 1000 nM | CCc1cccc(-n2nc(C(=O)N(C)C(C)(C)C)c3c2-c2cc(OC(C)C)c(OC)cc2CC3)c1 [Example 7cd, N-tert-butyl-1-(3-ethylphenyl)-8-isopropoxy-7-methoxy-N-methyl-4,5-dihydro-1H-benzo[g]indazole-3-carboxamide] |
| 100 to 1000 nM | COc1cc2c(cc1OC(C)C)-c1c(c(C(=O)N(C)C(C)(C)C)nn1-c1cccc(C3CC3)c1)CC2 [Example 7cf, N-tert-butyl-1-(3-cyclopropylphenyl)-8-isopropoxy-7-methoxy-N-methyl-4,5-dihydro-1H-benzo[g]indazole-3-carboxamide] |
| 1000 to 10000 nM | COc1cc2c(cc1OC(C)C)-c1c(c(C(=O)N(C)C(C)(C)C)nn1-c1cccc([N+](=O)[O-])c1)CC2 [Example 8ca, N-tert-butyl-8-isopropoxy-7-methoxy-N-methyl-1-(3-nitrophenyl)-4,5-dihydro-1H-benzo[g]indazole-3-carboxamide] |
| 100 to 1000 nM | COc1cc2c(cc1OC(C)C)-c1c(c(C(=O)N(C)C(C)(C)C)nn1-c1cccc(F)c1)CC2 [Example 8cb, N-tert-butyl-1-(3-fluorophenyl)-8-isopropoxy-7-methoxy-N-methyl-4,5-dihydro-1H-benzo[g]indazole-3-carboxamide] |
| 100 to 1000 nM | COc1cccc(-n2nc(C(=O)N(C)C(C)(C)C)c3c2-c2cc(OC(C)C)c(OC)cc2CC3)c1 [Example 8cc, N-tert-butyl-8-isopropoxy-7-methoxy-1-(3-methoxyphenyl)-N-methyl-4,5-dihydro-1H-benzo[g]indazole-3-carboxamide] |
| 100 to 1000 nM | COc1cc2c(cc1OC(C)C)-c1c(c(C(=O)N(C)C(C)(C)C)nn1-c1cccc(C)c1)CC2 [Example 8cd, N-tert-butyl-8-isopropoxy-7-methoxy-N-methyl-1-m-tolyl-4,5-dihydro-1H-benzo[g]indazole-3-carboxamide] |

More lines, now with the values behind:

| Compound | EC50 |
| --- | --- |
| COc1cc2c(cc1OC)-c1c(c(C(=O)N(C)C(C)(C)C)nn1-c1ccc(F)cc1)CC2 [Example 1e, N-tert-butyl-1-(4-fluorophenyl)-7,8-dimethoxy-N-methyl-4,5-dihydro-1H-benzo[g]indazole-3-carboxamide] | 1000 to 10000 nM |
| COc1cc2c(cc1OC)-c1c(c(C(=O)N3CCCN(C(C)=O)CC3)nn1-c1ccc(F)cc1)CC2 [Example 1f] | 1000 to 10000 nM |
| COc1cc2c(cc1OC)-c1c(c(C(=O)N3CCCN(C(=O)C4CCC4)CC3)nn1-c1ccc(F)cc1)CC2 [Example 1g] | 100 to 1000 nM |
| COc1cc2c(cc1OC(C)C)-c1c(c(C(=O)N(C)C(C)(C)C)nn1-c1nc3ccccc3s1)CC2 [Example 4d, 1-(benzo[d]thiazol-2-yl)-N-tert-butyl-8-isopropoxy-7-methoxy-N-methyl-4,5-dihydro-1H-benzo[g]indazole-3-carboxamide] | 1000 to 10000 nM |
| COc1cc2c(cc1OC(C)C)-c1c(c(C(=O)N(C)C(C)(C)C)nn1-c1cccnc1)CC2 [Example 6b, N-tert-butyl-8-isopropoxy-7-methoxy-N-methyl-1-(pyridin-3-yl)-4,5-dihydro-1H-benzo[g]indazole-3-carboxamide] | 100 to 1000 nM |
| COc1cc2c(cc1OC(C)C)-c1c(c(C(=O)N(C)C(C)(C)C)nn1-c1ccccc1Br)CC2 [Example 9ca, 1-(2-bromophenyl)-N-tert-butyl-8-isopropoxy-7-methoxy-N-methyl-4,5-dihydro-1H-benzo[g]indazole-3-carboxamide] | 100 to 1000 nM |
| CC=Cc1ccccc1-n1nc(C(=O)N(C)C(C)(C)C)c2c1-c1cc(OC(C)C)c(OC)cc1CC2 [Example 9cb, 1-(2-(2-methylvinyl)-phenyl)-N-tert-butyl-8-isopropoxy-7-methoxy-N-methyl-4,5-dihydro-1H-benzo[g]indazole-3-carboxamide] | 1000 to 10000 nM |
| C=Cc1ccccc1-n1nc(C(=O)N(C)C(C)(C)C)c2c1-c1cc(OC(C)C)c(OC)cc1CC2 [Example 9cc, N-tert-butyl-8-isopropoxy-7-methoxy-N-methyl-1-(2-vinylphenyl)-4,5-dihydro-1H-benzo[g]indazole-3-carboxamide] | 1000 to 10000 nM |
| COc1cc2c(cc1OC(C)C)-c1c(c(C(=O)N(C)C(C)(C)C)nn1-c1ccccc1-c1ccoc1)CC2 [Example 9cd, N-tert-butyl-1-(2-(furan-3-yl)phenyl)-8-isopropoxy-7-methoxy-N-methyl-4,5-dihydro-1H-benzo[g]indazole-3-carboxamide] | 1000 to 10000 nM |
| COc1cc2c(cc1OC(C)C)-c1c(c(C(=O)N(C)C(C)(C)C)nn1-c1ccccc1C)CC2 [Example 10ca, N-tert-butyl-8-isopropoxy-7-methoxy-N-methyl-1-o-tolyl-4,5-dihydro-1H-benzo[g]lindazole-3-carboxamide] | 1000 to 10000 nM |
| COc1cc2c(cc1OC(C)C)-c1c(c(C(=O)N(C)C(C)(C)C)nn1-c1ccccc1F)CC2 [Example 10cb, N-tert-butyl-1-(2-fluorophenyl)-8-isopropoxy-7-methoxy-N-methyl-4,5-dihydro-1H-benzo[g]indazole-3-carboxamide] | 100 to 1000 nM |
| COc1cc2c(cc1OC(C)C)-c1c(c(C(=O)N(C)C(C)(C)C)nn1-c1ccccc1OC)CC2 [Example 10cc, N-tert-butyl-8-isopropoxy-7-methoxy-1-(2-methoxyphenyl)-N-methyl-4,5-dihydro-1H-benzo[g]indazole-3-carboxamide] | 1000 to 10000 nM |
| COc1cc2c(cc1-c1ncco1)-c1c(c(C(=O)N(C)C(C)(C)C)nn1-c1ccccc1Cl)CC2 [Example 11ga, N-tert-butyl-1-(2-chlorophenyl)-7-methoxy-N-methyl-8-(oxazol-2-yl)-4,5-dihydro-1H-benzo[g]lindazole-3-carboxamide] | 1000 to 10000 nM |
| COc1cc2c(cc1NC(=O)c1cocn1)-c1c(c(C(=O)N(C)C(C)(C)C)nn1-c1cccc(C)c1)CC2 [Example 12g] | 1000 to 10000 nM |
| COc1cc2c(cc1NS(C)(=O)=O)-c1c(c(C(=O)N(C)C(C)(C)C)nn1-c1cccc(C)c1)CC2 [Example 12h] | 1000 to 10000 nM |
| COc1cc2c(cc1NC(=O)CN1CCN(C)CC1)-c1c(c(C(=O)N(C)C(C)(C)C)nn1-c1cccc(C)c1)CC2 [Example 12ja, N-tert-butyl-7-methoxy-N-methyl-8-(2-(4-methylpiperazin-1-yl)acetamido)-1-m-tolyl-4,5-dihydro-1H-benzo[g]indazole-3-carboxamide] | 1000 to 10000 nM |
| COc1cc2c(cc1NC(=O)CN1CCOCC1)-c1c(c(C(=O)N(C)C(C)(C)C)nn1-c1cccc(C)c1)CC2 [Example 12jb, N-tert-butyl-7-methoxy-N-methyl-8-(2-morpholinoacetamido)-1-m-tolyl-4,5-dihydro-1H-benzo[g]indazole-3-carboxamide] | 1000 to 10000 nM |
| COc1cc2c(cc1NC(=O)CN(C)C)-c1c(c(C(=O)N(C)C(C)(C)C)nn1-c1cccc(C)c1)CC2 [Example 12jc, N-tert-butyl-8-(2-(dimethylamino)acetamido)-7-methoxy-N-methyl-1-m-tolyl-4,5-dihydro-1H-benzo[g]indazole-3-carboxamide] | 1000 to 10000 nM |
| COc1cc2c(cc1NC(=O)CN1CCC1)-c1c(c(C(=O)N(C)C(C)(C)C)nn1-c1cccc(C)c1)CC2 [Example 12jd, 8-(2-(azetidin-1-yl)acetamido)-N-tert-butyl-7-methoxy-N-methyl-1-m-tolyl-4,5-dihydro-1H-benzo[g]indazole-3-carboxamide] | 1000 to 10000 nM |
| COc1cc2c(cc1OC(C)C)-c1c(c(C(=O)N(C)C(C)(C)C)nn1-c1ccc(C)cc1)CC2 [Example 13ca, N-tert-butyl-8-isopropoxy-7-methoxy-N-methyl-1-p-tolyl-4,5-dihydro-1H-benzo[g]indazole-3-carboxamide] | 1000 to 10000 nM |
| CCc1ccc(-n2nc(C(=O)N(C)C(C)(C)C)c3c2-c2cc(OC(C)C)c(OC)cc2CC3)cc1 [Example 13cb, N-tert-butyl-1-(4-ethylphenyl)-8-isopropoxy-7-methoxy-N-methyl-4,5-dihydro-1H-benzo[g]lindazole-3-carboxamide] | 1000 to 10000 nM |
| COc1ccc(-n2nc(C(=O)N(C)C(C)(C)C)c3c2-c2cc(OC(C)C)c(OC)cc2CC3)cc1 [Example 13cc, N-tert-butyl-8-isopropoxy-7-methoxy-1-(4-methoxyphenyl)-N-methyl-4,5-dihydro-1H-benzo[g]indazole-3-carboxamide] | 1000 to 10000 nM |
